From patent US11633421B2, “Use of NAD precursors for improving maternal health and/or offspring health” (UNIVERSITY OF IOWA RESEARCH FOUNDATION, priority 2016, dated 2023)

What was measured:
Format in all cases: in vivo, mice
[1] = Mammary gland development (size of mammary tissue); details: NR-supplemented vs non-supplemented mothers
Text: FIGS. 14A-B. Postpartum NR supplementation promotes mammary gland development (n=5 mice per group) (FIG. 14A). NR increases heat loss by increasing expression of UCP1 (FIG. 14B). […] In addition, the size of the mammary tissue itself is greater in NR-supplemented mothers than in non-supplemented mothers (FIG. 14A).

[2] = test system: brain derived neurotrophic factor (BDNF); experiment: BDNF in milk; details: NR-supplemented mothers
Method: FIG. 10. NR supplemented mothers produce milk with higher brain-derived neurotrophic factor. Milk from NC and NR mothers was tested. […] Based on the advanced brain and neurobehavioral development that was observed, it was investigated whether NR-supplemented mothers produced more BDNF in their milk.

[3] = Open field test of offspring
Method: The order of the bars from left to right are: males of normal chow (NC) mothers (white with light grey outline), followed by males of NR-supplemented mothers (filled light grey), followed by females of NC mothers (white with dark grey outline), followed by females of NR-supplemented mothers (filled dark grey). […] These adults were treated identically ever since weaning. The only difference is whether the mother was NR-supplemented for 21 days. They are faster and more adventurous. The order of the bars from left to right are: males of normal chow (NC) mothers (white with light grey outline), followed by males of NR-supplemented mothers (filled light grey), followed by females of NC mothers (white with dark grey outline), followed by females of NR-supplemented mothers (filled dark grey). At 15 days of age, it was observed that the offspring of NR-supplemented mothers were more physically active. In this experiment, the physical activity of male and female offspring of mothers supplemented or not with NR at 15 days of age was quantified. […] At 21 days, the offspring were removed from their mothers and put on normal chow […]. While offspring of NR could have been put on NR chow, we aimed to determine if the 21 day intervention to their mothers was sufficient for a lasting effect on their neurocognitive and/or physical development.

[4] = Brain size and caudate putamen of offspring
Text: FIGS. 24A-D. 69 days after their mother's intervention, the female offspring tend to have larger brains […] (FIG. 24A). Pups of NR-supplemented moms show advanced pruning of the caudate putamen at day 22 (FIGS. 24B-C); however, the caudate putamen in pups from NR-supplemented mothers grows to a normal size in adulthood (FIG. 24D). The order of the bars from left to right are: males of normal chow (NC) mothers (white with light grey outline), followed by males of NR-supplemented mothers (filled light grey), followed by females of NC mothers (white with dark grey outline), followed by females of NR-supplemented mothers (filled dark grey). At 91 days, the mice were sacrificed and examined with respect to their brains. In FIG. 24A, it was shown that female mice from NR-supplemented mothers have larger brains in adulthood. We hypothesized that the caudate putamen, which is the motor learning center of the brain, may have developed more rapidly in mice whose mothers had been NR-supplemented either due to the increased quality and/or quantity of milk they received and/or improved maternal care.

[5] = Offspring body composition, brain mass and activity at weaning (Example 1)
Method: Female C57BL/6N mice were raised in 12 hour light:dark cycles on Teklad 2920X chow (NC). For 12 weeks prior to mating with a single C57BL/6N male, females were on either NC (n=4) or NC+NR (n=4). Females were maintained on the same diet through gestation and weaning, which was at 21 days after birth. […] The improved body composition of mice from NR-supplemented mothers was entirely unexpected.

[6] = Balance beam test of offspring; details: 85 days old male and female offspring
Text: FIGS. 22A-C. 64 days after their mother's intervention, 85-day-old adults of NR-supplemented mothers have better performance on a balance beam. They cross a beam balance faster (untrained); they slip fewer times; and they almost never grip the beam with their tail. […] The order of the bars from left to right are: males of normal chow (NC) mothers (white with light grey outline), followed by males of NR-supplemented mothers (filled light grey), followed by females of NC mothers (white with dark grey outline), followed by females of NR-supplemented mothers (filled dark grey). The improved physical functions of adult offspring of NR-supplemented mothers were not confined to advantages in making less anxious choices about where to move in space, light and dark. At 85 days old, when mice were again 64 days past their mother's intervention—again all mice were on NC show for 64 days—their untrained ability to cross a balance beam was tested. […] This was not anticipated.

[7] = Transmission of heavy-atom labeled oral NR into milk; details: oral NR labeled with heavy atoms in nicotinamide and ribose moieties, gavage to lactating mothers
Method: FIGS. 9A-B. Orally administered NR is not directly transmitted via milk.
A series of in vivo murine experiments were performed to evaluate the effects of nicotinamide riboside on milk production. […] As shown in FIGS. 8A-C, the concentration of protein, carbohydrate and fat in the milk of NR-supplemented mothers was normal. Because there is approximately 2-fold more milk produced by NR-supplemented mothers, NR-supplemented mothers transmit more calories to their offspring, which thereby assists maternal weight loss and neonatal development. In FIG. 9A, the concentration of NAD precursor vitamins in the milk from control mothers and NR-supplemented mothers was determined. […] Oral NR was labeled with heavy atoms in the nicotinamide and ribose moieties of NR and this was provided to lactating mothers by gavage.

[8] = Elevated plus maze test of offspring; details: 85 day old adult offspring; males reached statistical significance
Text: Males are not afraid to “stick their head out”. The order of the bars from left to right are: males of normal chow (NC) mothers (white with light grey outline), followed by males of NR-supplemented mothers (filled light grey), followed by females of NC mothers (white with dark grey outline), followed by females of NR-supplemented mothers (filled dark grey). At 64 days past the mother's intervention, the willingness of 85 day old adult offspring of mice from this experiment (NC or NR-supplemented) to put their heads out in an elevated plus maze was tested. […] The clear indication is that maternal NR produces improvements in maternal behavior and/or qualitative and/or quantitative improvements in lactation sufficient to improve the development and health of offspring. The ability of the mother's 21 day micronutrition to produce beneficial effects on her offspring into adulthood was not at all anticipated.

For NC(=O)c1ccc[n+]([C@@H]2O[C@H](CO)[C@@H](O)[C@H]2O)c1 [NR, nicotinamide riboside], the “size of the mammary tissue” value [1] was “greater”, the “concentration of BDNF in the milk vs non-supplemented mothers” value [2] was 2 fold and the “physical activity in open field test” value ([3]; 15 days of age, first 5 minutes) was “much more physically active”. The “time in the center of the open field test” value ([3]; 15 days of age, males, middle 5 minute epoch) was “significant amount of time in the center”, the “time in the center of open field test” value ([3]; 70 day-old adult males) was “less time in the center” and the “immobile time in open field test” value ([3]; 70 day-old adults) was “tendency toward less immobile time”. For the same compound, the “speed in open field test” value ([3]; 70 day-old adults) was “move faster”, the “distance covered in open field test” value ([3]; 70 day-old adults, 49 days after mother's intervention) was “cover more distance” and the “brain size in adulthood” value ([4]; 91 days, female mice from NR-supplemented mothers) was “larger”. For the same compound, the “caudate putamen in adults” value ([4]; adult offspring) was “not affected”, the “caudate putamen pruning (area of PSD95 staining)” value ([4]; female weanlings) was “clearly advanced pruning” and the “caudate putamen size in weanlings” value ([4]; weanlings at 21 days) was “slightly smaller”. The “physical activity of fasted neonates” value ([5]; NR in the diet of female mice) was “greater physical activity”, the “body composition (fat mass) of mice raised by NR-supplemented mothers” value ([5]; at weaning) was “leaner” and the “brain mass of mice raised by NR-supplemented mothers” value ([5]; at weaning) was “tend toward larger brains”. For the same compound, the “slips on balance beam” value [6] was “fewer slips”, the “time to cross a balance beam (untrained)” value [6] was “cross faster” and the “use of tail to grip the balance beam” value [6] was “virtually no use of their tails”. For the same compound, the “labeled species released into milk” value [7] was “only single labeled nicotinamide and no double-labeled NR” and the “willingness to put heads out in an elevated plus maze” value [8] was “higher willingness”.
